The record followed here is patent publication US5527815A, “Carboxymethylidenecycloheptimidazole derivatives, method of manufacturing the same and therapeutic agents containing these compounds” (Kotobuki Seiyaku Co., Ltd., priority 1993, dated 1996).

One test concerns the target T1, Angiotensin II receptor (Oryctolagus cuniculus, UniProt P34976).
T1 construct: Rabbit thoracic aorta is isolated, contracted by angiotensin II; from tissue; host or cells: rabbit thoracic aorta
T1 sequence (P34976 1-359): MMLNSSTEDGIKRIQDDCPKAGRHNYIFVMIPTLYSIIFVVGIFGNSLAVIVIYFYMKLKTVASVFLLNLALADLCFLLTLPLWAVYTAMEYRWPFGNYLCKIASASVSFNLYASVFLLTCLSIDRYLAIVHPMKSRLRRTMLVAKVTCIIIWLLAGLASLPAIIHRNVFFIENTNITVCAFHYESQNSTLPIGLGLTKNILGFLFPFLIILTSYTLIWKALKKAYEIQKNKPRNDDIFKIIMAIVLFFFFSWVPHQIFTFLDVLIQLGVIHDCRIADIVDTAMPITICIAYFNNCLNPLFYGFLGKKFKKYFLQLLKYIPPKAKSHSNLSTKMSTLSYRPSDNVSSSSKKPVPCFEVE
The test is described as follows: AII receptor antagonistic activity: inhibition of angiotensin II induced contraction of isolated rabbit thoracic aorta. The class given is cell-based. Conditions: isolated rabbit thoracic aorta contracted by angiotensin II; Van Rossum method; values shown in parenthesis. As for the experimental part:
[AII receptor antagonistic activity]
Angiotensin II receptor activity experiments are carried out according to P. C. Wong et al. (Hypertension 15, 823 (1990)).
Rabbit thoracic aorta is isolated, contracted by angiotensin II. The inhibition of contraction by the compound of formula (1) is expressed as pA2 from dose-response curve (Schild, Brit. J. Pharmacol. 14, 48 (1959)) or expressed as pD2 ' according to the method of J. M. Van Rossum (Arch. Intern. Pharmacodyn., 143, 229 (1963)).
On to `CCCc1nc2c(n1Cc1ccc(-c3ccccc3-c3nnn[nH]3)cc1)/C(=C/C(=O)OC(C)OC(=O)OCC)CCCC2` (centres unmarked) [Compound 27, 2-Propyl-8-(1-ethoxycarbonyloxy)ethoxycarbonylmethylidene-1-[(2'-(1H-tetrazole-5-yl)biphenyl-4-yl)methyl]-4,5,6,7-tetrahydro-cycloheptimidazole], for which the “pD2'” value is reported as 8.45.
As to `CCCCc1nc2c(n1Cc1ccc(-c3ccccc3-c3nnn[nH]3)cc1)/C(=C/C(=O)O)CC(C(C)C)CC2` (centres unmarked) [Compound 25, 2-Butyl-6-isopropyl-8-carboxymethylidene-1-[(2'-(1H-tetrazole-5-yl)biphenyl-4-yl)methyl]-4,5,6,7-tetrahydro-cycloheptimidazole], the “pD2'” value is 8.88.
On to `CCCc1nc2c(n1Cc1ccc(-c3ccccc3-c3nnn[nH]3)cc1)/C(=C/C(=O)OCC)CCCC2` [Compound 4, 2-Propyl-8-ethoxycarbonylmethylidene-1-[(2'-(1H-tetrazole-5-yl)biphenyl-4-yl)methyl]-4,5,6,7-tetrahydro-cycloheptimidazole], for which the “pD2'” value amounted to 8.40.
With `Cc1nc2c(n1Cc1ccc(-c3ccccc3-c3nnn[nH]3)cc1)/C(=C/C(=O)O)CCCC2` [Compound 15, 2-Methyl-8-carboxymethylidene-1-[(2'-(1H-tetrazole-5-yl)biphenyl-4-yl)methyl]-4,5,6,7-tetrahydro-cycloheptimidazole], the “pD2'” value is listed as 9.91.
The same measure, in the same setting: the value for `CCCc1nc2c(n1Cc1ccc(-c3ccccc3-c3nnn[nH]3)cc1)/C(=C/C(=O)O)CCCC2` [Compound 17, 2-Propyl-8-carboxymethylidene-1-[(2'-(1H-tetrazole-5-yl)biphenyl-4-yl)methyl]-4,5,6,7-tetrahydro-cycloheptimidazole] was 9.86; that for `CCc1nc2c(n1Cc1ccc(-n3cccc3-c3nnn[nH]3)cc1)/C(=C/C(=O)OC(C)OC(=O)OC(C)C)CCCC2` (centres unmarked) [Compound 32, 2-Ethyl-8-(1-isopropoxycarbonyloxy)ethoxycarbonylmethylidene-[4-(1H-pyrrole-2-(1H-tetrazole-5-yl)phenyl)methyl]-4,5,6,7-tetrahydro-cycloheptimidazole] was 9.38.
On the same count and under the same terms, to `CCOC(=O)OC(C)OC(=O)/C=C1\CCCCc2nc(CC)n(Cc3ccc(-c4ccccc4-c4nnn[nH]4)cc3)c21` (centres unmarked) [Compound 36, 2-Ethyl-8-(1-ethoxycarbonyloxy)ethoxycarbonylmethylidene-1-[(2'-(1H -tetrazole-5-yl)biphenyl-4yl)methyl]-4,5,6,7-tetrahydro-cycloheptimidazole] belongs 8.59; to `CCc1nc2c(n1Cc1ccc(-c3ccccc3-c3nnn[nH]3)cc1)/C(=C/C(=O)OC(C)OC(=O)OC(C)C)CCCC2` (centres unmarked) [Compound 30, 2-Ethyl-8-(1-isopropoxycarbonyloxy)ethoxycarbonylmethylidene-1-[(2'-(1H-tetrazole-5-yl)biphenyl-4-yl)methyl]-4,5,6,7-tetrahydro-cycloheptimidazole], 8.11.
On the same count and under the same terms, the value for `CCCCc1nc2c(n1Cc1ccc(-c3ccccc3-c3nnn[nH]3)cc1)/C(=C/C(=O)O)CCCC2` [Compound 18, 2-Butyl-8-carboxymethylidene-1-[(2'-(1H-tetrazole-5-yl)biphenyl-4-yl)methyl]-4,5,6,7-tetrahydro-cycloheptimidazole] was 9.03.
Regarding `CCOC(=O)/C=C1\CCCCc2nc(CC)n(Cc3ccc(-c4ccccc4-c4nnn[nH]4)cc3)c21` [Compound 3, 2-Ethyl-8-ethoxycarbonylmethylidene-1-[(2'-(1H-tetrazole-5-yl)biphenyl-4-yl)methyl]-4,5,6,7-tetrahydro-cycloheptimidazole], the “pD2'” value is reported as 9.00.
Same read-out and setting: to `CCCc1nc2c(n1Cc1ccc(-c3ccccc3-c3nnn[nH]3)cc1)/C(=C/C(=O)O)CC(C(C)C)CC2` (centres unmarked) [Compound 21, 2-Propyl-6-isopropyl-8-carboxymethylidene-1-[(2'-(1H-tetrazole-5-yl)biphenyl-4-yl)methyl]-4,5,6,7-tetrahydro-cycloheptimidazole] belongs 9.08.
For `CCc1nc2c(n1Cc1ccc(-n3cccc3-c3nnn[nH]3)cc1)/C(=C/C(=O)O)CCCC2` [Compound 23, 2-Ethyl-8-carboxymethylidene-1-[4-(1H-pyrrole-2-(1H-tetrazole-5-yl)phenyl)methyl]-4,5,6,7-tetrahydro-cycloheptimidazole], the “pD2'” value is given as 9.60.
With `CCc1nc2c(n1Cc1ccc(-c3ccccc3-c3nnn[nH]3)cc1)/C(=C/C(=O)OC(C)OC(=O)OC1CCCCC1)CCCC2` (centres unmarked) [Compound 35], the “pD2'” value is reported as 8.12.
On to `CCc1nc2c(n1Cc1ccc(-c3ccccc3-c3nnn[nH]3)cc1)/C(=C/C(=O)O)CC(C(C)C)CC2` (centres unmarked) [Compound 20, 2-Ethyl-6-isopropyl-8-carboxymethylidene-1-[(2'-(1H-tetrazole-5-yl)biphenyl-4-yl)methyl]-4,5,6,7-tetrahydro-cycloheptimidazole], for which the “pD2'” value stood at 9.04.

Still in this test, the particulars now being: isolated rabbit thoracic aorta contracted by angiotensin II; from dose-response curve (Schild); read-out: pA2 (converted).
For `CCCCCc1nc2c(n1Cc1ccc(-c3ccccc3-c3nn[nH]n3)cc1)/C(=C/C(=O)O)CCCC2` [Compound 19, 2-Pentyl-8-carboxymethylidene-1-[(2'-(1H-tetrazole-5-yl)biphenyl-4-yl)methyl]-4,5,6,7-tetrahydro-cycloheptimidazole], the Kb is 1.51 nM.
As for `CCCCc1nc2c(n1Cc1ccc(-n3cccc3-c3nn[nH]n3)cc1)/C(=C/C(=O)O)CCCC2` [Compound 26, 2-Butyl-8-carboxymethylidene-1-[4-(1H-pyrrole-2-(1H-tetrazole-5-yl)phenyl)methyl]-4,5,6,7-tetrahydro-cycloheptimidazole], the Kb was 0.501 nM.
Still for that read-out and setting: the value for `Cc1nc2c(n1Cc1ccc(-n3cccc3-c3nn[nH]n3)cc1)/C(=C/C(=O)O)CCCC2` [Compound 22, 2-Methyl-8-carboxymethylidene-1-[4-(1H-pyrrole-2-(1H-tetrazole-5-yl)phenyl)methyl]-4,5,6,7-tetrahydro-cycloheptimidazole] was 1.26 nM; that for `CCCc1nc2c(n1Cc1ccc(-c3ccccc3-c3nn[nH]n3)cc1)CCCC/C2=C\C(=O)O` [Compound 14, 2-Propyl-4-carboxymethylidene-1-[(2'-(1H-tetrazole-5-yl)biphenyl-4-yl)methyl]-5,6,7,8-tetrahydro-cycloheptimidazole] was 0.158 nM.
`CCOC(=O)/C=C1\CCCCc2nc(C)n(Cc3ccc(-c4ccccc4-c4nnn[nH]4)cc3)c21` [Compound 2, 2-Methyl-8-ethoxycarbonylmethylidene-1-[(2'-(1H-tetrazole-5-yl)biphenyl-4-yl)methyl]-4,5,6,7-tetrahydro-cycloheptimidazole]: the Kb was 36.3 nM.
On the same count and under the same terms, the value for `CCCc1nc2c(n1Cc1ccc(-n3cccc3-c3nn[nH]n3)cc1)/C(=C/C(=O)O)CCCC2` [Compound 24, 2-Propyl-8-carboxymethylidene-1-[4-(1H-pyrrole-2-(1H-tetrazole-5-yl)phenyl)methyl]-4,5,6,7-tetrahydro-cycloheptimidazole] was 0.158 nM.

A further test deals with pressor responses to AII. Put plainly: Inhibition of AII induced blood pressure increase in rats. It is filed as in vivo. Conditions: Rattus norvegicus, po, test compound 0.3 mg/kg orally, AII 30 ng/kg i.v., pressor responses measured at set times. The procedure: [Inhibition of All induced Blood Pressure Increase]
Carotid artery and left femoral vein in rats were cannulated. Next day, the carotid catheter was connected to a pressure transducer for monitoring arterial blood pressure. After the measurement of AII (30 ng/kg, i.v.) pressor responses, test compounds (0.3 mg/kg) were administered orally.
Thereafter, the pressor responses to AII at set times were measured and the inhibition percent was calculated according to the comparison of the pressor responses.
Compound `CCOC(=O)/C=C1\CC(C(C)C)CCc2nc(CC)n(Cc3ccc(-c4ccccc4-c4nnn[nH]4)cc3)c21` (centres unmarked) [Compound 7, 2-Ethyl-6-isopropyl-8-ethoxycarbonylmethylidene-1-[(2'-(1H-tetrazole-5yl)biphenyl-4-yl)methyl]-4,5,6,7-tetrahydro-cycloheptimidazole] registered an inhibition in vivo at 0.3 mg/kg not below 70%.
In the case of `CCCc1nc2c(n1Cc1ccc(-c3ccccc3-c3nnn[nH]3)cc1)/C(=C/C(=O)OCC)CCCC2` [Compound 4, 2-Propyl-8-ethoxycarbonylmethylidene-1-[(2'-(1H-tetrazole-5-yl)biphenyl-4-yl)methyl]-4,5,6,7-tetrahydro-cycloheptimidazole], the inhibition in vivo at 0.3 mg/kg lay within 50 to 70%.
Turning to `CCCc1nc2c(n1Cc1ccc(-c3ccccc3-c3nnn[nH]3)cc1)/C(=C/C(=O)O)CCCC2` [Compound 17, 2-Propyl-8-carboxymethylidene-1-[(2'-(1H-tetrazole-5-yl)biphenyl-4-yl)methyl]-4,5,6,7-tetrahydro-cycloheptimidazole], the inhibition in vivo at 0.3 mg/kg fell in the range of 50 to 70%.
Still for that read-out and setting: to `CCc1nc2c(n1Cc1ccc(-c3ccccc3-c3nnn[nH]3)cc1)/C(=C/C(=O)OC(C)OC(=O)OC(C)C)CC(C(C)C)CC2` (centres unmarked) [Compound 31, 2-Ethyl-6-isopropyl-8-(1-isopropoxycarbonyloxy)ethoxycarbonylmethylidene-1-[(2'-(1H-tetrazole-5-yl)biphenyl-4-yl)methyl]-4,5,6,7-tetrahydro cycloheptimidazole] belongs not below 70%; to `CCCc1nc2c(n1Cc1ccc(-c3ccccc3-c3nnn[nH]3)cc1)/C(=C/C(=O)OC(C)OC(=O)OC(C)C)CC(C(C)C)CC2` (centres unmarked) [Compound 33, 2-Propyl-6-isopropyl-8-(1-isopropoxycarbonyloxy)ethoxycarbonylmethylidene-1-[(2'-(1H-tetrazole-5-yl)biphenyl-4-yl)methyl]-4,5,6,7-tetrahydro-cycloheptimidazole], not below 70%.
In the case of `CCCc1nc2c(n1Cc1ccc(-c3ccccc3-c3nnn[nH]3)cc1)/C(=C/C(=O)OC(C)OC(=O)OC1CCCCC1)CCCC2` (centres unmarked) [Compound 28], the inhibition in vivo at 0.3 mg/kg was not below 70%.
